Values quoted from earlier work, collected in patent US12545694B2, “Cannabidiol derivatives, preparation method thereof and use thereof” (CHENGDU BAIYU PHARMACEUTICAL CO., LTD., priority 2020, dated 2026).

Details: human

SMILES: C=C(C)[C@@H]1CCC(C)=C[C@H]1c1c(O)cc(CCCCC)cc1O [CBD, cannabidiol]
- oral bioavailability: about 6%
